According to patent US20090246281A1, “Soft steroid compositions for use in dry powder inhalers” (Norton Healthcare Ltd., priority 2003, published 2009):

Experiment: Stability of EDA dry mix versus EDA solutions in solvents
Assay type: physicochemical
From the text: In comparison, solutions prepared by dissolving 2 wt % EDA in a) pure methanol, b) pure ethanol, c) methanol+10 wt % water (pH 4.5) and d) ethanol+10% water (pH 4.5), were stable for 2 days, 2 days, 4 days and 4 days, respectively.

## CCOC(=O)[C@@]1(OC(=O)C(Cl)Cl)CCC2C3CCC4=CC(=O)C=CC4(C)C3C(O)CC21C (stereo partly drawn) [EDA, ethyl 17α-dichloroacetoxy-11β-hydroxyandrosta-1,4-dien-3-one-17β-carboxylate]
2 wt % EDA in ethanol+10% water (pH 4.5)
  Time stable in solution: 4 days
2 wt % EDA in methanol+10 wt % water (pH 4.5)
  Time stable in solution: 4 days
2 wt % EDA in pure ethanol
  Time stable in solution: 2 days
2 wt % EDA in pure methanol
  Time stable in solution: 2 days
